Reference: US10647747B2, “Cyclosporin derivatives and uses thereof” (S&T Global Inc., priority 2010, dated 2020)
Read-outs that look alike come from different tables or passages of the source. *1 amine or outer side, *2 acyl side, *3 side chain or, on linkers, in order; H or OH if unused. Where a SMILES comes first, the peptide text is derived from it. [ ]: non-standard residue; d: D form. X3 = CC=CCC(C)C(O)C(C(=O)[*:2])N(C)[*:1]; X5 = CSCOC(C)(C)CC(C(=O)[*:2])N(C)[*:1]; X4 = CCN(CC)CCSC(C(=O)[*:2])N(C)[*:1]; NMeL = CN[CH](CC(C)C)C(=O)O; NMeV = CN[CH](C(=O)O)C(C)C; Abu = CC[CH](N)C(=O)O

What was measured:
[1] = test system: rat neuronal mitochondria; experiment: Mitochondrial swelling assay (inhibition of mitochondrial permeability transition, MPT); format: biochemical; settings: compound 100 nM added 5 minutes before Ca2+; swelling induced by 100 micromolar calcium chloride; absorbance 620nm; control 100
Method: The effect of cyclosporine analogs on mitochondrial permeability transition (MPT) was determined by a modified mitochondrial swelling assay measured as an influx of Ca^2+, published by J. Blattner et al., 2001, Analytical Biochem, 295, 220-226. Briefly, rat neuronal mitochondria in an ice-cold sucrose buffer were obtained after rat whole-body perfusion and a series of centrifugation. The total protein concentration in each sample batch was determined for standardization between assays. The mitochondrial swelling was induced by 100 micromolar of Calcium Chloride. Each compound (100 nM) was added to mitochondria 5 minutes before the addition of Ca^2+. The value of absorbance at the certain wavelength (620nm) reflected the degree of mitochondrial swelling. The percentage of the swelling was calculated by comparing the absorbance in the present or absent compound of the interests.

[2] = test system: HIV-1IIIB in CEM-SS cells; experiment: Anti-HIV cytoprotection assay, acute infection model, MTS endpoint; format: cell-based; settings: Human immunodeficiency virus 1, 144 h, Table 17, HIV-1IIIB in CEM-SS cells, 6-day incubation, read-out: Antiviral activity EC50
Method: Anti-HIV activity of cyclosporine derivatives were evaluated by cytoprotection assay in an acute infection model using CEM-SS cells and either HIV-1IIIB or HIV-1 RF. Antiviral activity was determined as a reduction in virus-caused cytopathic effects when compounds prevent virus replication. Cytoprotection and compound cytotoxicity were evaluated using the tetrazollium dye MTS (Promega) to calculate cell viability following virus infection after 6-day incubation (Zhou G., et al., 2011, J. Med. Chem. 27, 7220-31; which is incorporated herein by reference).

[3] = test system: HCV replicon in cell line ET (luc-ubi-neo/ET), Huh7 human hepatoma; experiment: HCV subgenomic replicon assay, luciferase end point; format: cell-based; settings: Hepatitis C virus, read-out: Antiviral activity EC50

| Structure (SMILES) | Mitochondrial Swelling Relative % [1] | EC50 [2] | EC50 ([3]; Huh-7, HCV subgenomic replicon, cell line ET (luc-ubi-neo/ET) Huh7, luciferase end point) | EC50 ([3]; Huh-7, Table 14, HCV replicon luciferase) |
| --- | --- | --- | --- | --- |
| CC=CCC(C)C(O)C1C(=O)NC(CC)C(=O)N(C)C(SCCN(CC)CC)C(=O)N(C)C(CC(C)(C)OCSC)C(=O)NC(C(C)C)C(=O)N(C)C(CC(C)C)C(=O)NC(C)C(=O)NC(C)C(=O)N(C)C(CC(C)C)C(=O)N(C)C(CC(C)C)C(=O)N(C)C(C(C)C)C(=O)N1C (centres unmarked) (cyclo([X3][Abu][X4][X5]V[NMeL]AA[NMeL][NMeL][NMeV]); configuration not given here) | 52.4% |  |  |  |
| C/C=C/C[C@@H](C)[C@@H](O)[C@H]1C(=O)N[C@@H](CC)C(=O)N(C)[C@H](CSCCN2CCOCC2)C(=O)N(C)[C@@H](CC(C)(C)O)C(=O)N[C@@H](C(C)C)C(=O)N(C)[C@@H](CC(C)C)C(=O)N[C@@H](C)C(=O)N[C@H](C)C(=O)N(C)[C@@H](CC(C)C)C(=O)N(C)[C@@H](CC(C)C)C(=O)N(C)[C@@H](C(C)C)C(=O)N1C [[(S)-(2-(N-Morpholino)ethylthio)methyl-Sar]-3-[(γ-hydroxy)-N-MeLeu]-4-cyclosporin] |  | 94.9 nM | 60 nM | 20 nM |
| C/C=C/C[C@@H](C)[C@@H](O)[C@H]1C(=O)N[C@@H](CC)C(=O)N(C)[C@H](CSCCN(CC)CC)C(=O)N(C)[C@@H](CC(C)(C)O)C(=O)N[C@@H](C(C)C)C(=O)N(C)[C@@H](CC(C)C)C(=O)N[C@@H](C)C(=O)N[C@H](C)C(=O)N(C)[C@@H](CC(C)C)C(=O)N(C)[C@@H](CC(C)C)C(=O)N(C)[C@@H](C(C)C)C(=O)N1C | 55.7% |  |  |  |
